# Results published in ChEMBL document CHEMBL3045984, “Resistance to HPPD-inhibiting herbicides in a population of waterhemp (Amaranthus tuberculatus) from Illinois, United States” (2011).
# Key:
# Amaranthus tuberculatus [1] = assay: Resistance ratio of GR50 for Amaranthus tuberculatus biotype MCR to GR50 for Amaranthus tuberculatus biotype WCS; format: functional
# Amaranthus tuberculatus [2] = assay: Resistance ratio of GR50 for Amaranthus tuberculatus biotype MCR to GR50 for Amaranthus tuberculatus biotype ACR; format: functional
smiles,measurement,setting,value
CS(=O)(=O)c1ccc(C(=O)C2C(=O)CCCC2=O)c([N+](=O)[O-])c1 [MESOTRIONE],Ratio,Amaranthus tuberculatus [1],35
same,Ratio,Amaranthus tuberculatus [2],10
